Laboratory results as given in patent US20220089541A1, “Compounds for the Treatment of Kinase-Dependent Disorders” (Exelixis, Inc., priority 2019, published 2022).

How the values were obtained:
[1] = microsomes, pH 7.4
Method: (§1) Liver microsomes tissue fractions were used for in vitro assessment of metabolic stability of compounds by cytochrome P450 (CYP450) (for example, CYP3A4, CYP2C9) mediated phase I oxidation, and metabolism through other pathways. Human, mouse, rat, and dog liver microsomes tissue fractions were obtained from Corning Gentest and BioreclamationIVT.
(§2) The assay was carried out in 96-well microtiter plates. Compounds were incubated (N=l) at 37° C. in the presence of liver microsomes. Reaction mixtures (25 μL) contained a final concentration of 1 μM test compound, 0.5 mg/mL liver microsomes (LM) protein, and 1 mM NADPH in 100 mM potassium phosphate, pH 7.4 buffer with 3.3 mM MgCl2. The extent of metabolism was calculated as the disappearance of the test compound, compared to the 0-min control reaction incubations. Verapamil was included as a positive control to verily assay performance.
(§3) At each of the four time points, 150 μL of quench solution (100% acetonitrile with 0.1% formic acid) with internal standard (bucetin for positive ESI mode) was transferred to each well. Plates were sealed and centrifuged at 10° C. for 15 minutes at 4000 rpm. The supernatant was transferred to fresh plates for LC/MS/MS analysis.
(§4) All samples were analyzed on LC/MS/MS using an AB Sciex API 4000 instrument, coupled to a Shimadzu LC-20AD LC Pump system. Analytical samples were separated using a Waters Atlantis T3 dC18 reverse phase HPLC column (20 mm×2.1 mm) at a flow rate of 0.5 mL/min. The mobile phase consisted of 0.1% formic acid in water (solvent A) and 0.1% formic acid in 100% acetonitrile (solvent B).

[2] = microsomes, pH 7.4; remark: listed apart in the source
Method: as §1, §2, §3, §4

[3] = microsomes, pH 7.4; remark: listed apart in the source
Method: as §1, §2, §3, §4

[4] = Microsomal assay, human liver microsome stability; conditions: liver microsomes, pH 7.4
Method: as §1, §2, §3, §4

[5] = Microsomal assay, rat liver microsome stability; conditions: liver microsomes, pH 7.4
Method: as §1, §2, §3, §4

[6] = target: T1, Met (Homo sapiens, UniProt P08581); assay: Met autophosphorylation ELISA in PC-3 cells; assay type: cell-based; conditions: PC-3 prostate cancer cells, HGF-stimulated, phospho-Met ELISA, 1 h compound incubation; read-out: c-Met IC50
T1 construct: host or cells: PC-3 prostate cancer cells
T1 sequence (P08581 25-1390): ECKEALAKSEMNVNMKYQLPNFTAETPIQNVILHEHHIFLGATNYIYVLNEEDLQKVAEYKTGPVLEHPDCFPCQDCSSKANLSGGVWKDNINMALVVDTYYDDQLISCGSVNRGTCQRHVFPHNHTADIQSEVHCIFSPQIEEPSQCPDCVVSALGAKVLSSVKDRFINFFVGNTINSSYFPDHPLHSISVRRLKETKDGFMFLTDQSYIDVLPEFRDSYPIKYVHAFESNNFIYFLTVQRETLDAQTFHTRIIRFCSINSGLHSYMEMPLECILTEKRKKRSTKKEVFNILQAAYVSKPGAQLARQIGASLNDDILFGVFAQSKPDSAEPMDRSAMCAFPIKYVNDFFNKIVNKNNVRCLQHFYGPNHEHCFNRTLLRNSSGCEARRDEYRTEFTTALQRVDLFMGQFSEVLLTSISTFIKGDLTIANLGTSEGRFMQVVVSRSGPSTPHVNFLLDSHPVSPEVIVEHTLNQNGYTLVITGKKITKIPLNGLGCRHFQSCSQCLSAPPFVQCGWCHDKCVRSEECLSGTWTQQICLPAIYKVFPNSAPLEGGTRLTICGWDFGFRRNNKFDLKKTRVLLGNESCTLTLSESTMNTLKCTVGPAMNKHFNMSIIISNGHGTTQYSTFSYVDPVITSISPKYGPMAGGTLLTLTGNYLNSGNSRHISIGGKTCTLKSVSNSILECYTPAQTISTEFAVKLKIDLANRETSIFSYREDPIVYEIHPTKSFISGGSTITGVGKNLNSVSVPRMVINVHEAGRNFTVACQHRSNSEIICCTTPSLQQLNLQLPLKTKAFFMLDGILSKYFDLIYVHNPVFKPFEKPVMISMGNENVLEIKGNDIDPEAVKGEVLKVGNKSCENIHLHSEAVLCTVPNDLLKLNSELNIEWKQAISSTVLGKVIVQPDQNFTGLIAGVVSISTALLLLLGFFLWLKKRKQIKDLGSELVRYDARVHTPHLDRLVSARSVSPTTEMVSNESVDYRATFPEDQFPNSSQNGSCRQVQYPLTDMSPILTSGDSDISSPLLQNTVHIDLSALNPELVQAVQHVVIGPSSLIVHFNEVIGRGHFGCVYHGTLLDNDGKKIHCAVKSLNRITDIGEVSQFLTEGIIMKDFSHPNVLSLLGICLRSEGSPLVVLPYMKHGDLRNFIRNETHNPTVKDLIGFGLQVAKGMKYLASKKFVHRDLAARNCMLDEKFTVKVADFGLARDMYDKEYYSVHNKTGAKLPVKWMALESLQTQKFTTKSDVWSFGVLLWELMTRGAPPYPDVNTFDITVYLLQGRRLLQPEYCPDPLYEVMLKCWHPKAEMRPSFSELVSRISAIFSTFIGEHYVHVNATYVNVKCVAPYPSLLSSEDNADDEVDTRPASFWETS
Method: Example B: Met Autophosphorylation ELISA in PC-3 Cells
PC-3 prostate cancer cells (ATCC #CRL-1435) were seeded at 4×10^4 cells/well onto 24-well plates (Greiner #662165), in DMEM (Thermo Fisher #11995-040) containing 10% FBS (Thermo Fisher #26140-079), 1% MEM NEAA (Thermo Fisher #11140-050), 1% GlutaMax (Thermo Fisher #35050-061), and 1% Penicillin Streptomycin (Thermo Fisher #15140-122). PC-3 cells were incubated at 37° C., 5% CO2 for 24 h and then starved for 3 h in serum-free medium. Test compounds were serially diluted to produce an 8-point dose curve in fresh serum-free medium to a final concentration of 0.3% DMSO (vehicle) and added to the cells and incubated for 1 h. Cells were then stimulated with 100 ng/mL recombinant human HGF (R&D Systems #294-HG-250) for 10 min, washed with cold PBS, and immediately lysed with 130 μL of cold IX lysis buffer [20 mM Tris, 137 mM sodium chloride, 2 mM EDTA, 10% glycerol, 1% NP-40 alternative, 1 mM activated sodium orthovanadate, 1 mM PefaBloc SC (Sigma-Aldrich #11429868001), protease/phosphatase inhibitor tablet (Thermo Fisher #A32959)]. Lysates were clarified by centrifugation and 100 μL/well added into the PathScan phospho-Met (panTyr) Sandwich ELISA (Cell Signaling Technology #7333). Assay was performed according to manufacturer's instructions. Positive control wells (100% activity) contained HGF-stimulated, DMSO-treated cell lysates. Negative control wells (0% activity) contained HGF-stimulated, reference inhibitor-treated cell lysates. IC50 values were calculated by nonlinear regression analysis using a 4-parameter logistic curve fit in ActivityBase XE (IDBS).

[7] = target: T2, KDR (Homo sapiens, UniProt P35968); assay: KDR autophosphorylation ELISA in HUVEC cells; assay type: cell-based; conditions: VEGF165-stimulated, phospho-KDR ELISA, 1 h compound incubation
T2 construct: host or cells: HUVEC (human umbilical vein endothelial cells)
T2 sequence (P35968 20-1356): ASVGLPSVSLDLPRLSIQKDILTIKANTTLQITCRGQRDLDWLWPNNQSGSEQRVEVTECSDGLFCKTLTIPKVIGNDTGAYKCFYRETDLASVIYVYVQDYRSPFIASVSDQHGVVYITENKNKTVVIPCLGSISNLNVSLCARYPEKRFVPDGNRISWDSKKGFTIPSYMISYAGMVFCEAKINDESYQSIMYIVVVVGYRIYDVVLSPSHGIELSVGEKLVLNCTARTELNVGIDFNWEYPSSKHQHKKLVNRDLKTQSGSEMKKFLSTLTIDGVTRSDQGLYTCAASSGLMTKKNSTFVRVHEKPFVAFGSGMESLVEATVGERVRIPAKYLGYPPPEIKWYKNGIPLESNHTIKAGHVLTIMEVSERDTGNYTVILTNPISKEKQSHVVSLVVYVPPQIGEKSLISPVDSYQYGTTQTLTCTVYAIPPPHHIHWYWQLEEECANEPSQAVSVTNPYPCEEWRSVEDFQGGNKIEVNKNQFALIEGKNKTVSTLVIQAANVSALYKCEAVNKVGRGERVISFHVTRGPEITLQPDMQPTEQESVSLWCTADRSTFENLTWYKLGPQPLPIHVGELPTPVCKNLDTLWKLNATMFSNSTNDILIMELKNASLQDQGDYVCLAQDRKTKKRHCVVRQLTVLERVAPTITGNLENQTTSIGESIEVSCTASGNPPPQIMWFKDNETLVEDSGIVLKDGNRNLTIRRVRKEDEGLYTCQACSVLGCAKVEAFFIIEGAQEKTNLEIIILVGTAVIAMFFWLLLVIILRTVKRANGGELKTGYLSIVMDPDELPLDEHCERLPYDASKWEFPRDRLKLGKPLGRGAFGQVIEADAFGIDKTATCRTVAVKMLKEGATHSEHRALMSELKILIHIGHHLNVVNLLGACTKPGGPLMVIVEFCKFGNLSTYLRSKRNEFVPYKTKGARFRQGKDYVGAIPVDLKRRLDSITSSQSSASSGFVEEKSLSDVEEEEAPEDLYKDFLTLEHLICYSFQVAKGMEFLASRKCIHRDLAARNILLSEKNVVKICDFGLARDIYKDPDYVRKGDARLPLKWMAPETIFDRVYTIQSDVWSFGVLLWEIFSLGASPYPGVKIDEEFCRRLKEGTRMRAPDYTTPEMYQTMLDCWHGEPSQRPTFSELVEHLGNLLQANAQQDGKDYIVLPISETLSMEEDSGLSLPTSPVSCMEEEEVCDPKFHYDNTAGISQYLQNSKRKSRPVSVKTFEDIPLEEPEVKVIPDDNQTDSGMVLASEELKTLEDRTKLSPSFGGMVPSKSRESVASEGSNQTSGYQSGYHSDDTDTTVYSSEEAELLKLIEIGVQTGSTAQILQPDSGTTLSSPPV
Method: Example C: KDR Autophosphorylation ELISA in HUVEC Cells
umbilical vein endothelial cells or HUVEC (Lonza #C2519A) were seeded at 2×10^4 cells/well onto 96-well plates (Corning #3904), in EGM-2 growth medium (Lonza #CC-3162) containing 1% Penicillin Streptomycin (Thermo Fisher #15140-122). HUVEC cells were incubated at 37° C., 5% CO2 for 24 h and then starved for 24 h in serum-free EBM-2 basal medium (Lonza #CC-3156) containing 1% Penicillin Streptomycin. Test compounds were serially diluted to produce an 8-point dose curve in fresh serum-free medium to a final concentration of 0.3% DMSO (vehicle) and added to the cells and incubated for 1 h. Cells were then stimulated with 100 ng/mL recombinant human VEGF165 (R&D Systems #293-VE-500) for 5 min, washed with cold PBS, and immediately lysed with 130 μL of cold IX lysis buffer [20 mM Tris, 137 mM sodium chloride, 2 mM EDTA, 10% glycerol, 1% NP-40 alternative, 1 mM activated sodium orthovanadate, 1 mM PefaBloc SC (Sigma-Aldrich #11429868001), protease/phosphatase inhibitor tablet (Thermo Fisher #A32959)]. Lysates were collected and 100 μL/well added into the human phospho-KDR DuoSet IC ELISA (R&D Systems #DYC 1766-2). Assay was performed according to manufacturer's instructions and sample phospho-KDR concentrations were extrapolated using human phospho-KDR control (R&D Systems #841421) as a standard. Positive control wells (100% activity) contained VEGF165-stimulated, DMSO-treated cell lysates. Negative control wells (0% activity) contained non-stimulated cell lysates. IC50 values were calculated by nonlinear regression analysis using a 4-parameter logistic curve fit in ActivityBase XE (IDBS).

[8] = Microsomal assay, mouse liver microsome stability; conditions: liver microsomes, pH 7.4
Method: as §1, §2, §3, §4

[9] = target: T3, AXL (Homo sapiens, UniProt P30530); assay: AXL autophosphorylation ELISA in A-172 cells; assay type: cell-based; conditions: A-172 glioblastoma cells, Gas6-stimulated, phospho-AXL ELISA, 1 h compound incubation
T3 construct: host or cells: A-172 glioblastoma cells
T3 sequence (P30530 26-894): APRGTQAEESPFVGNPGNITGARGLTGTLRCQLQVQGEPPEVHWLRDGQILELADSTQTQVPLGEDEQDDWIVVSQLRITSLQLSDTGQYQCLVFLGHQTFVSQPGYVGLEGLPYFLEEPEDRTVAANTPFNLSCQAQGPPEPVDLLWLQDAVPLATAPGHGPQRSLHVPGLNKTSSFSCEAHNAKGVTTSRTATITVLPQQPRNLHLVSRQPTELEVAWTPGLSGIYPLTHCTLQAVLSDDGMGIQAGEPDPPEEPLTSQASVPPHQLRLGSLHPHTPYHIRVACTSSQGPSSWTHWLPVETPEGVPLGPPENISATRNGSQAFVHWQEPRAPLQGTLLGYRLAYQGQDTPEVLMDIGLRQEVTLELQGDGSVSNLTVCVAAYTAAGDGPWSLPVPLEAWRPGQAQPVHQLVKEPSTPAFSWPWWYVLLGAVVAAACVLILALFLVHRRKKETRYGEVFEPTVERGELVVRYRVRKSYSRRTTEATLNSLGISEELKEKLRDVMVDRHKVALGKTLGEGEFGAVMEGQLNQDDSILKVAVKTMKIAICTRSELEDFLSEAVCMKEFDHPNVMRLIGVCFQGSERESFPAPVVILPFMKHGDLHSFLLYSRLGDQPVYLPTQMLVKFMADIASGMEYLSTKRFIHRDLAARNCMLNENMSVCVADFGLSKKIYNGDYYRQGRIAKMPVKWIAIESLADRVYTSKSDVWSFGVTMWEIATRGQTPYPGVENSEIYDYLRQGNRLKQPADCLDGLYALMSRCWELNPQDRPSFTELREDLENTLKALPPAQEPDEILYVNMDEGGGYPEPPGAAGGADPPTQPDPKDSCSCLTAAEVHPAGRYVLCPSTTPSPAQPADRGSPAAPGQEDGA
Method: Example A: AXL Autophosphorylation ELISA in A-172 Cells
A-172 glioblastoma cells (ATCC #CRL-1620) were seeded at 2.5×10^5 cells/well onto 24-well plates (Greiner #662165), in DMEM (Thermo Fisher #11995-040) containing 10% FBS (Thermo Fisher #26140-079), 1% MEM NEAA (Thermo Fisher #11140-050), 1% GlutaMax (Thermo Fisher #35050-061), and 1% Penicillin Streptomycin (Thermo Fisher #15140-122). A-172 cells were incubated at 37° C., 5% CO2 for 24 h and then starved for 24 h in serum-free medium. Test compounds were serially diluted to produce an 8-point dose curve in fresh serum-free medium to a final concentration of 0.3% DMSO (vehicle) and added to the cells and incubated for 1 h. Cells were then stimulated with 1 μg/mL recombinant human Gas6 (R&D Systems #885-GSB-500) for 15 min, washed with cold PBS, and immediately lysed with 150 μL of cold IX lysis buffer [20 mM Tris, 137 mM sodium chloride, 2 mM EDTA, 10% glycerol, 1% NP-40 alternative, 1 mM activated sodium orthovanadate, 1 mM PefaBloc SC (Sigma-Aldrich #11429868001), protease/phosphatase inhibitor tablet (Thermo Fisher #A32959)]. Lysates were collected and 100 μL/well added into the human phospho-AXL DuoSet IC ELISA (R&D Systems #DYC2228-2). Assay was performed according to manufacturer's instructions and sample phospho-AXL concentrations were extrapolated using human phospho-AXL control (R&D Systems #841645) as a standard. Positive control wells (100% activity) contained Gas6-stimulated, DMSO-treated cell lysates. Negative control wells (0% activity) contained Gas6-stimulated, reference inhibitor-treated cell lysates. IC50 values were calculated by nonlinear regression analysis using a 4-parameter logistic curve fit in ActivityBase XE (IDBS).

Row | Rat Liver Microsome Stability CLint (μL/min/million cells) [1] | Rat Liver Microsome Stability t½ [1] [min] | Human Liver Microsome Stability CLint (μL/min/million cells) [2] | Human Liver Microsome Stability t½ [2] [min] | Mouse Liver Microsome Stability CLint (μL/min/million cells) [3] | Mouse Liver Microsome Stability t½ [3] [min] | half-life at 1 μM [4] [min] | half-life at 1 μM [5] [min] | IC50 [6] [µM] | IC50 [7] [µM] | half-life at 1 μM [8] [min] | IC50 [9] [µM] | Compound
1 | 1028 | 1.35 | 1052 | 1.3 | 928 | 1.49 | – | – | – | – | – | – | 1-N-[4-(6,7-Dimethoxyquinolin-4-yl)oxyphenyl]-1-N′-(4-fluorophenyl)-1-N′-(methoxymethyl)cyclopropane-1,1-dicarboxamide [Compound 49]
2 | – | – | – | – | – | – | 1.6 | 1.6 | > 0.3 | > 0.3 | 7.3 | – | COc1cc2c(Oc3ccc(NC(=O)C4(C(=O)N(C)c5ccc(F)cc5)CC4)cc3F)ccnc2cc1OCCCN1CCOCC1 [Compound 11, N-(3-Fluoro-4-((6-methoxy-7-(3-morpholinopropoxy)quinolin-4-yl)oxy)phenyl)-N-(4-fluorophenyl)-N-methylcyclopropane-1,1-dicarboxamide]
3 | – | – | – | – | – | – | – | – | > 0.3 | > 0.3 | – | > 0.3 | COc1cc2nccc(Oc3ccc(NC(=O)C4(C(=O)N(C)c5ccc(F)cc5)CC4)cc3F)c2nc1OC [Compound 44, 1-N-[4-[(6,7-Dimethoxy-1,5-naphthyridin-4-yl)oxy]-3-fluorophenyl]-1-N′-(4-fluorophenyl)-1-N′-methylcyclopropane-1,1-dicarboxamide]
